Assay results from the NIST ThermoML archive (doi:10.1016/j.jct.2012.05.003).

Legend:
[1] = Molar enthalpy of transition or fusion; details: Crystal; Adiabatic calorimetry
[2] = for molar entropy: Vacuum adiabatic calorimetry

O=C1c2ccccc2-c2ccccc21 [9(9H)-fluorenone]
Details	Molar enthalpy of transition or fusion [kcal/mol]
[1]	3.9101

[2]
Details	molar entropy [J/K/mol]	vapor or sublimation pressure [kPa]
5 K, 101.33 kPa, Crystal	0.2	–
10 K, 101.33 kPa, Crystal	1.47	–
20 K, 101.33 kPa, Crystal	7.81	–
30 K, 101.33 kPa, Crystal	16.59	–
40 K, 101.33 kPa, Crystal	26.02	–
50 K, 101.33 kPa, Crystal	35.44	–
60 K, 101.33 kPa, Crystal	44.68	–
70 K, 101.33 kPa, Crystal	53.57	–
80 K, 101.33 kPa, Crystal	62.15	–
90 K, 101.33 kPa, Crystal	70.45	–
100 K, 101.33 kPa, Crystal	78.48	–
120 K, 101.33 kPa, Crystal	93.91	–
140 K, 101.33 kPa, Crystal	108.7	–
160 K, 101.33 kPa, Crystal	123.08	–
180 K, 101.33 kPa, Crystal	137.18	–
200 K, 101.33 kPa, Crystal	151.1	–
220 K, 101.33 kPa, Crystal	164.93	–
240 K, 101.33 kPa, Crystal	178.73	–
260 K, 101.33 kPa, Crystal	192.51	–
280 K, 101.33 kPa, Crystal	206.3	–
298.15 K, 101.33 kPa, Crystal	218.82	–
300 K, 101.33 kPa, Crystal	220.1	–
320 K, 101.33 kPa, Crystal	233.91	–
340 K, 101.33 kPa, Crystal	247.73	–
340 K, 101.33 kPa, Liquid	291.47	–
356.52 K, 101.33 kPa, Crystal	259.19	–
356.52 K, 101.33 kPa, Liquid	305.07	–
360 K, 101.33 kPa, Liquid	307.89	–
368.12 K, Liquid, Inclined piston gauge	–	0.0161
378.12 K, Liquid, Inclined piston gauge	–	0.0308
380 K, 101.33 kPa, Liquid	323.92	–
388.12 K, Liquid, Inclined piston gauge	–	0.0562
398.12 K, Liquid, Inclined piston gauge	–	0.0987
400 K, 101.33 kPa, Liquid	339.6	–
408.12 K, Liquid, Inclined piston gauge	–	0.1672
418.12 K, Liquid, Inclined piston gauge	–	0.2744
420 K, 101.33 kPa, Liquid	354.94	–
428.11 K, Liquid, Inclined piston gauge	–	0.4382
438.11 K, Liquid, Inclined piston gauge	–	0.6825
440 K, 101.33 kPa, Liquid	369.98	–
448.11 K, Liquid, Inclined piston gauge	–	1.038
458.11 K, Liquid, Inclined piston gauge	–	1.544
460 K, 101.33 kPa, Liquid	384.73	–
464.96 K, Liquid, Twin ebulliometer	–	2
468.11 K, Liquid, Inclined piston gauge	–	2.25
472.82 K, Liquid, Twin ebulliometer	–	2.666
478.11 K, Liquid, Inclined piston gauge	–	3.216
480 K, 101.33 kPa, Liquid	399.2	–
483.11 K, Liquid, Inclined piston gauge	–	3.821
493.2 K, Liquid, Twin ebulliometer	–	5.333
500 K, 101.33 kPa, Liquid	413.42	–
506.16 K, Liquid, Twin ebulliometer	–	7.999
515.86 K, Liquid, Twin ebulliometer	–	10.67
520 K, 101.33 kPa, Liquid	427.39	–
523.7 K, Liquid, Twin ebulliometer	–	13.33
531.86 K, Liquid, Twin ebulliometer	–	16.66
538.62 K, Liquid, Twin ebulliometer	–	19.93
547.52 K, Liquid, Twin ebulliometer	–	25.02
547.53 K, Liquid, Twin ebulliometer	–	25.02
556.48 K, Liquid, Twin ebulliometer	–	31.17
565.49 K, Liquid, Twin ebulliometer	–	38.56
574.56 K, Liquid, Twin ebulliometer	–	47.37
583.67 K, Liquid, Twin ebulliometer	–	57.81
592.85 K, Liquid, Twin ebulliometer	–	70.11
602.07 K, Liquid, Twin ebulliometer	–	84.53
611.34 K, Liquid, Twin ebulliometer	–	101.32
620.67 K, Liquid, Twin ebulliometer	–	120.78
630.05 K, Liquid, Twin ebulliometer	–	143.23
639.47 K, Liquid, Twin ebulliometer	–	169
648.95 K, Liquid, Twin ebulliometer	–	198.46
658.48 K, Liquid, Twin ebulliometer	–	231.99
668.07 K, Liquid, Twin ebulliometer	–	269.98

Details	mass density [kg/m3]
[2], 373 K, 101.33 kPa, Liquid, Pycnometric method	1090

Details	Triple point temperature [K]
[2], Crystal, Adiabatic calorimetry	356.52
